Experimental data as given in article PMC11666850, “Development and evaluation of deuterated [^18F]JHU94620 isotopologues for the non-invasive assessment of the cannabinoid type 2 receptor in brain” (EJNMMI Radiopharmacy and Chemistry, 2024).

Assays:
CB2R = assay: Quantitative autoradiography, pig spleen cryosections; assay type: binding; conditions: blocking with 10 µM GW405833 or self-blocking
Method: For quantitative autoradiography in different species, 10 µm cryosections from mouse, rat and piglet spleen were thawed, dried, and pre-incubated with incubation buffer for 10 min, dried under an airstream. Subsequently, the incubation buffer containing [^18F]JHU94620-d8 (59–137 GBq µmol^−1, 1.7–3.6 nM) was added alone or together with indicated concentrations of the reference compound. Additionally, to assess the non-specific binding of [^18F]JHU94620-d8 to cryosections GW405833 was added instead of the reference compound. After 90 min, cryosections were washed two times for 2 min with ice-cold 50 mM Tris HCl, pH7.4 and 10 s in ddH2O and subsequently dried under an airstream. For the calculation of the radioactivity concentration, 5 µl of five serial 1:2 dilutions of the incubation buffer with [^18F]JHU94620-d8 were air-dried on a microscopic slide. For binding studies in rat spleen cryosections by autoradiography with HLM-derived radiometabolites of [^18F]JHU94620-d8 obtained from the radiometabolite assay, the samples were added to the incubation buffer to a final activity concentration of 0.2 MBq mL^−1 and protocol was followed as described above. Subsequently, the slides were exposed to a phosphor imager plate. After scanning at high sensitivity and a 12.5 µm resolution with a CR35 Bio image plate scanner (Raytest Isotopenmessgeräte GmbH, Straubenhardt, Germany). […]

human CB2R (hCB2R) = target: T1, human CB2R (hCB2R) (Homo sapiens, UniProt P34972); assay: Homologous competition binding, CHO(hCB2R) cell membranes
T1 construct: expressed in transfected cells; host or cells: CHO(hCB2R) cells, obtained from Paul L. Prather, University of Arkansas for Medical Sciences
T1 sequence (P34972 whole entry): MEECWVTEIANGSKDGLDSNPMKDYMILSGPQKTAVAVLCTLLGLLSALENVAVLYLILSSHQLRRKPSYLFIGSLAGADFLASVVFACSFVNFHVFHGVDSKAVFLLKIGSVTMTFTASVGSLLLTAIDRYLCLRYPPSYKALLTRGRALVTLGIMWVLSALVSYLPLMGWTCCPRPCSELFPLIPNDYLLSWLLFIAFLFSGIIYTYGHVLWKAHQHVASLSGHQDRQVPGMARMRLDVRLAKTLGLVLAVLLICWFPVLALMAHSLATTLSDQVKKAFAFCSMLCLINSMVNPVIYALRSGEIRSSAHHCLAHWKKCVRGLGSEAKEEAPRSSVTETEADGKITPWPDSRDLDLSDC
Method: For binding studies crude homogenates of CHO(hCB2R) cells (obtained from Paul L. Prather, Department of Pharmacology and Toxicology, College of Medicine, University of Arkansas for Medical Sciences, USA) were incubated with the reference compound (self-blocking) or the CB2R-specific partial agonist GW405833 (Tocris Bioscience, Bristol, UK) with indicated concentrations at room temperature for 90 min. The total volume of 1 mL of each sample consisted of 600 µL incubation buffer (50 mM Tris HCl pH7.4, 5 mM MgCl2, 1 mM EDTA and 1% Bovine Serum Albumin), 200 µL cell membrane homogenates, 100 µL competitor or binding buffer (total binding) and 100 µl of binding buffer with [^18F]JHU94620-d8 (about 100 kBq per vial, corresponding to 0.8 to 1.6 nM). Incubation was terminated by rapid filtration through a GF-B glass fibre filter, pre-treated with 0.5% PVP with 0.1% Tween 20 solution, using a 48-well cell harvester, washed six times with buffer and filter bound activity was subsequently measured in a γ-counter (1480 WIZARD, Perkin Elmer, Turku, Finland).
The KD values were calculated with GraphPad Prism according to the modified Cheng-Prusoff method for homologous competitive binding studies, where the KD = Ki = IC50—[radioligand] and the Bmax = specific binding / [radioligand] / ((KD + [radioligand])) (Motulsky and Neubig [2000]), assuming a total protein content of 8.2% (1.3 10^–4 µg protein per voxel) in the spleen (Zaia et al. [2000]) or by determining the protein concentration of the cell membrane lysates using a BCA assay (Thermo Scientific, Braunschweig, Germany). The fractional occupancy defined as occupied binding sites per total binding sites is used to describe the binding fraction specifically bound to CB2R compared to unspecific binding, where [L] is the concentration of the ligand at the start of incubation.

With `[2H]C([2H])([18F])C([2H])([2H])C([2H])([2H])C([2H])([2H])n1c(C)c(C)s/c1=N\C(=O)C1C(C)(C)C1(C)C` [[^18F]JHU94620-d8] the “specific binding to CB2R” value (CB2R) was 22 ± 11%, the Kd (human CB2R (hCB2R)) was 1.47 nM and the Bmax (human CB2R (hCB2R); CHO(hCB2R) cell membrane fractions) was 2.7 pmol mg^−1 protein.
